One data set deals with Colo205 cells. The data set can be described thus: FACS of PI-stained cells: cell cycle and rate of cell death (SubG1), Colo205. Particulars: for cell death induced by Cdc7 inhibitor on coadministration with Wee1 inhibitor MK-1775: Cdc7 inhibitor 0.1 μM, MK-1775 0.25, 0.5, 0.75 μM, FIG. 1 / FIG. 5; for cell death on coadministration with Chk1 inhibitor SCH900776: Cdc7 inhibitor 0.3 μM or 0.1 μM, SCH900776 3.3 μM, FIG. 9; for cell death on coadministration with Chk1 inhibitor UCN-01 / cell death on coadministration with Hsp90 inhibitor geldanamycin: Cdc7 inhibitor 0.1, 0.03 or 0.3 μM; for cell death on coadministration with Chk1 inhibitor UCN-01: UCN-01 333 nM, FIG. 10; for cell death on coadministration with Hsp90 inhibitor geldanamycin: geldanamycin 10 nM or 33 nM, FIG. 11. The format is cell-based. On the procedure: COLO205 (RCB2127, RIKEN BRC) was cultured in a 10-cm dish using an RPMI-1640 medium (Sigma-Aldrich Corp., R8758) supplemented with 10% FCS (Equitech-Bio, Inc.) and 5% penicillin-streptomycin (GIBCO/Thermo Fisher Scientific, Inc., 15140). The medium was removed from the cells in a well grown state (70 to 90% confluent), and the cells were dissociated from the dish by treatment with 2 mL of trypsin (TrypL Express, manufactured by GIBCO/Thermo Fisher Scientific, Inc.) and recovered into the same medium as above.
(§1) The recovered cells of each line were seeded at 2.5×10^5 cells/ml/well to a 6-well plate (BD Falcon, catalog No. 353046). The cells were cultured overnight in a 5% CO2 incubator. On the next day, 500 μl of a medium supplemented with 1.5 μl of a stock solution having a 1000-fold concentration of each compound to be added was added to each well, […]
After the reaction of the cells with the compound for 48 to 72 hours, the cells were dissociated from the well by treatment with trypsin (TrypL Express, manufactured by GIBCO/Thermo Fisher Scientific, Inc.) and washed with DPBS. Then, 1 ml of cold ethanol was added thereto, and the cells were stored at −30° C. until staining. The cells were washed with DPBS once before staining and left standing with a propidium iodide (PI) solution at room temperature for 30 minutes or longer in the dark. The cells stained with PI were studied for the cell cycle and the rate of cell death indicated by SubG1 using FACS.

For another data set, the system named is NHDF cells. The data set can be described thus: FACS of PI-stained cells: cell death, normal NHDF cells. The format is cell-based. The conditions noted are these: Cdc7 inhibitor 0.1 μM, MK-1775 0.25, 0.5, 0.75 μM, FIG. 2. As to the method:
NHDF cells (Cryo NHDF-NeoCC-2509, manufactured by Sanko Junyaku Co., Ltd.) were cultured in a 10-cm dish using a medium (Brett Kit FGM2, CLCC-3132). The medium was removed from the NHDF cells in a well grown state (70 to 90% confluent), and the cells were washed with 5 mL of HEPES-buffered saline in a subculture reagent set (CLCC-5034, manufactured by Sanko Junyaku Co., Ltd.).
After removal of the HEPES-buffered saline, the whole dish was covered with 3 mL of a trypsin/EDTA solution included in the set. The cells were dissociated from the dish by giving a small impact on the side of the dish with taps of a hand. Then, 3 mL of a trypsin-neutralizing solution included in the set was added to the cells, which were then recovered.
as §1
After the reaction of the cells with the compound for 48 to 72 hours, the cells were dissociated from the well by treatment with trypsin (TrypL Express, manufactured by GIBCO/Thermo Fisher Scientific, Inc.) and washed with DPBS. […]

The subject of data set [1] is Panc-1 cells (pancreatic cancer cell line). The data set is described as follows: FACS of PI-stained cells: cell death, Panc-1 cells. It counts as cell-based. Particulars: Cdc7 inhibitor 0.1 μM, MK-1775 0.5 and 0.75 μM, FIG. 3. As to the method:
Panc-1 (ATCC, CRL-1469) was cultured in a 10-cm dish using a D-MEM medium (Sigma-Aldrich Corp., D5796) supplemented with 10% FCS (Equitech-Bio, Inc.) and 5% penicillin-streptomycin (GIBCO/Thermo Fisher Scientific, Inc., 15140). The medium was removed from the cells in a well grown state (70 to 90% confluent), and the cells were dissociated from the dish by treatment with 2 mL of trypsin (TrypL Express, manufactured by GIBCO/Thermo Fisher Scientific, Inc.) and recovered into the same medium as above.
as §1
After the reaction of the cells with the compound for 48 to 72 hours, the cells were dissociated from the well by treatment with trypsin (TrypL Express, manufactured by GIBCO/Thermo Fisher Scientific, Inc.) and washed with DPBS. Then, 1 ml of cold ethanol was added thereto, and the cells were stored at −30° C. until staining. The cells were washed with DPBS once before staining and left standing with a propidium iodide (PI) solution at room temperature for 30 minutes or longer in the dark. […]

The test system of another data set is MDA-MB-231 cells. The data set is described as follows: Cell growth inhibition (number of nuclei, Hoechst 33342) with BLISS score evaluation. It counts as cell-based, human. Particulars: 72 hours, Cdc7 inhibitor 19.5 to 10000 nM, MK-1775 7.81 to 1000 nM, FIGS. 12-15. As to the method: The BLISS scoring is a criterion often used in the evaluation of the synergistic effect of drugs used in combination (Borisy et al., Proc. Natl. Acad. Sci. USA. 100 (13): 7977-7982 (2003); and Buck et al., Mol. Cancer. Ther. 5 (11) (2006)). This BLISS scoring was used to analyze the effect of the Cdc7 inhibitor and the Wee1 inhibitor used in combination on the inhibition of cancer cell growth. […]
After the addition of the compounds, the cells were incubated for 72 hours. […] Then, the number of nuclei (the number of cells) was measured using a cell image analyzer (ArrayScan VTI HCS Reader, Thermo Fischer Scientific, Inc.) (Ex/Em=350/461 nm).
After 72 hours, the average number from the control wells was used as the number of untreated control cells (Gunt72), and the average number from the compound-treated wells was used as the number of compound-treated cells (G72). Wells in which the medium was merely replaced 24 hours after the cell inoculation were counted as an initial value and used as the initial number of cells (G0). […]
Assuming that the first test compound and the second test compound each acted as a single agent (i.e., the rate of cell growth when the concentration of either of the compounds was 0), the theoretical BLISS independence (BLISSin) of each well can be calculated according to the following expression: BLISSin=G(First test compound)×G(Second test compound) […]

The mark [2] stands for this setting: Colo205, Cdc7 inhibitor 0.1 μM or 0.3 μM, MK-1775 0.5 μM, FIG. 8.

As to `CC(C)OC(=O)C1=C(NN2CCOCC2)OC(=Cc2c[nH]c3ncccc23)C1=O` [compound (I-A), isopropyl 5-[(1H-pyrrolo[2,3-b]pyridin-3-yl)methylene]-2-(morpholinoamino)-4-oxo-4,5-dihydrofuran-3-carboxylate], the “cell death induced by Cdc7 inhibitor on coadministration with Wee1 inhibitor MK-1775” value (“cell death induced … with Wee1 inhibitor MK-1775” below) in the data set with Colo205 cells (Colo205) is reported as “synergistically increased”.
In the case of `CCOC(=O)C1=C(N2CCc3ccc(OC)cc3C2)O/C(=C\c2c[nH]c3ncccc23)C1=O` [compound (I-B), ethyl 5-[(1H-pyrrolo[2,3-b]pyridin-3-yl)methylene]-2-(7-methoxy-3,4-dihydroisoquinolin-2(1H)-yl)-4-oxo-4,5-dihydrofuran-3-carboxylate], in the data set on Colo205 cells (Colo205, compound (I-B) 0.3 μM, FIG. 6), the “cell death on coadministration with MK-1775” value is recorded as “synergistically increased”.
Consider `NC(=O)c1cc(-c2ccnc(N)n2)[nH]c1-c1ccc(Cl)cc1Cl` [compound (I-G), 5-(2-amino-pyrimidin-4-yl)-2-(2,4-dichloro-phenyl)-1H-pyrrole-3-carboxylic acid amide, reference compound], for which the “cell death on coadministration with MK-1775” value with Colo205 cells (setting [2]) was “synergistically increased”.
Take `CC(C)OC(=O)C1=C(NN2CCN(CC(F)(F)F)CC2)O/C(=C\c2c[nH]c3ncccc23)C1=O` [compound (I-C), isopropyl 5-[(1H-pyrrolo[2,3-b]pyridin-3-yl)methylene]-4-oxo-2-{[4-(2,2,2-trifluoroethyl)piperazinyl]amino}-4,5-dihydrofuran-3-carboxylate]: in the data set on Colo205 cells (Colo205, compound (I-C) 0.1 μM or 0.3 μM, FIG. 7), the “cell death on coadministration with MK-1775” value is reported as “synergistically increased”.
Turning to `O=C1NCCc2[nH]c(-c3ccncc3)cc21` [compound (I-F), 2-(pyridin-4-yl)-1,5,6,7-tetrahydro-4H-pyrrolo[3,2-c]pyridinone, reference compound], in the data set on Colo205 cells (setting [2]), the “cell death on coadministration with MK-1775” value is “synergistically increased”.
For `O=C(OCC1CC1)C1=C(NN2CCOCC2)O/C(=C\c2c[nH]c3ncccc23)C1=O` [compound (I-E), cyclopropylmethyl 5-[(1H-pyrrolo[2,3-b]pyridin-3-yl)methylene]-2-(morpholinoamino)-4-oxo-4,5-dihydrofuran-3-carboxylate], in the data set on Colo205 cells (Colo205), the “cell death induced … with Wee1 inhibitor MK-1775” value was “synergistically increased”, the “cell death on coadministration with Chk1 inhibitor SCH900776” value is reported as “synergistically increased”, the “cell death on coadministration with Chk1 inhibitor UCN-01” value is recorded as “synergistically increased” and the “cell death on coadministration with Hsp90 inhibitor geldanamycin” value is given as “synergistically increased”. Also, the “cell death on coadministration with MK-1775, varied composition” value in the data set with Colo205 cells (Colo205, compound (I-E):MK-1775 = 1:100 to 3:1 (ratio by μM), FIG. 4) is recorded as “sufficiently synergistically increased”. The “cytotoxicity to normal cells on addition of MK-1775” value with NHDF cells is reported as “no increase”. Moreover, the “cell death induced by Cdc7 inhibitor on coadministration with MK-1775” value in data set [1] is “synergistically increased”. Moreover, the “inhibition of cancer cell growth in combined use with MK-1775 (BLISS score)” value in the data set with MDA-MB-231 cells is given as “synergistically inhibits”.
Turning to `CCOC(=O)C1=C(NN2CCN(CC(F)(F)F)CC2)O/C(=C\c2c[nH]c3ncccc23)C1=O` [compound (I-D), ethyl 5-[(1H-pyrrolo[2,3-b]pyridin-3-yl)methylene]-4-oxo-2-{[4-(2,2,2-trifluoroethyl)piperazinyl]amino}-4,5-dihydrofuran-3-carboxylate], in the data set with Colo205 cells (Colo205), the “cell death induced … with Wee1 inhibitor MK-1775” value is recorded as “synergistically increased”, the “cell death on coadministration with Chk1 inhibitor SCH900776” value was “synergistically increased”, the “cell death on coadministration with Chk1 inhibitor UCN-01” value was “synergistically increased” and the “cell death on coadministration with Hsp90 inhibitor geldanamycin” value is given as “synergistically increased”. Also, the “cytotoxicity to normal cells on addition of MK-1775” value with NHDF cells is recorded as “no increase”. Moreover, the “cell death induced by Cdc7 inhibitor on coadministration with MK-1775” value in data set [1] is “synergistically increased”. In addition, the “inhibition of cancer cell growth in combined use with MK-1775 (BLISS score)” value with MDA-MB-231 cells is recorded as “synergistically inhibits”.
`C=CCn1c(=O)c2cnc(Nc3ccc(N4CCN(C)CC4)cc3)nc2n1-c1cccc(C(C)(C)O)n1` [MK-1775, reference compound]: the “proportion of cells in the M-phase” value in the data set with Colo205 cells (MK-1775 0.1 to 1 μM) is “increased”.

Source of the values: patent US9974795B2, “Anticancer agent composition” (CARNA BIOSCIENCES, INC., priority 2014, dated 2018).
